In data set [1] the test system is BAE cells. In words: MTT dye reduction cell growth assay, BAE cells. It counts as cell-based, Bovine. The following applies: Bos taurus, 72 h, subconfluent BAE cells stimulated with 10% FBS, 3 days, read-out: IC50, growth of cultured BAE cells. The procedure: The 3-(4,5-dimethylthiazol-2-yl)-2,5 diphenyltetrazolium bromide (MIT; Sigma Chemical Co., St. Louis, Mo.) dye reduction assay in 96-well microplates was used. The assay is dependent on the reduction of MTT by mitochondrial dehydrogenases of viable cell to a blue formazan product, which can be measured spectrophotometrically.
3×10^3 BAE cells in a total volume of 100 μl of complete medium were incubated in each well with serial dilutions of the compound AD0157 obtained as explained above. After 3 days of incubation in the dark (37° C., 5% CO2 in a humid atmosphere), 10 μl of MTT (5 mg/ml in PBS) was added to each well and the plate was incubated for further 4 h (37° C.). The resulting formazan was dissolved in 150 μl of 0.04 N HCl-2 propanol and read at 550 nm. All determinations were carried out in triplicate, independent experiments. IC50 values were calculated as those concentrations of AD0157 yielding 50% cell survival, taking the values obtained for control as 100%.
A general note: Tetrazolium assays rely on reduction of a dye to a coloured formazan, in cell work by metabolically active cells.

Data set [2] has as its system chick chorioallantoic membrane. In words: Chick chorioallantoic membrane (CAM) angiogenesis assay. In kind it is in vivo. The following applies: 48 h. The procedure: Fertilised chick eggs were incubated horizontally at 38° C. in a humidified incubator, windowed by day 3 of incubation, and processed by day 8. The tested compound stock solution was added to a 1.2% solution of methylcellulose in water, and 10 μL drops of this solution were allowed to dry on a teflon-coated surface in a laminar flow hood. Then, the methylcellulose discs were implanted on the CAM, the eggs were sealed with adhesive tape and returned to the incubator for 48 h. Negative controls were always made with DMSO mixed with the methylcellulose. After the reincubation, the CAM was examined under a stereomicroscope. The assay was scored as positive when two independent observers reported a significant reduction of vessels in the treated area.

In a further data set the test system is HT1080 MMP-2. Briefly: Gelatin zymography, HT1080 cells, MMP-2. It counts as cell-based, Human. The following applies: 24 h. The method, then: BAE or HT1080 cells were grown in 6-well plates at 75% subconfluency in 6-well plates, medium was aspirated, cells were washed twice with phosphate-buffered saline (PBS) and each well received 1.5 ml of DMEM/0.1% BSA containing 200 KIU of Aprotinin/mL. Additionally, some wells received the indicated concentration of AD0157. After 24 h of incubation, conditioned media were collected. To obtain the cell extracts, the cells were washed twice with PBS and harvested by scrapping into 0.5 mL of 0.2% Triton X-100 in 0.1 M Tris/HCl containing 200 KIU aprotinin/mL. Media were centrifuged at 1000×g and 4° C. for 20 min, and used for zymography. Duplicates were used to determine cell number with a Coulter counter.
The gelatinolytic activity of MMP-2 delivered to the conditioned media and cell extracts were detected in gelatinograms. Samples were subjected to non-reducing SDS/PAGE as above but with gelatin (1 mg/mL) added to the 10% resolving gel. After electrophoresis, gels were washed twice with 50 mM Tris/HCl, pH 7.4, supplemented with 2% Triton X-100, and twice with 50 mM Tris/HCl, pH 7.4. […] Then, the gels were stained with Commassie blue R-250 and the bands of gelatinase activity could be detected as non-stained bands in a dark, stained background.
Quantitative analysis of zymograms and gelatinograms was performed with the Scion Image 4.0.3.2 Program.

Data set [3] relates to BAE cells. Briefly: Tube formation with Cytodex beads on Matrigel. It counts as cell-based, Bovine. Particulars: 48 h. The method, then:
3×10^4 BAE cells, were cultured with Cytodex beads, and allowed to adhere to them. The beads were added in 200 μL DMEM per well to a 96-well plate that has been previously prepared as follows: different amounts of the compound AD0157 were dispensed in a 96 well plate. Matrigel (50 μL) at 4° C. was used to coat each well of and allowed to polymerise at 37° C. for a minimum of 30 min. After polymerization, the beads carrying the endothelial cells were added to the wells. The plate was incubated at 37° C. in a humidified chamber with 5% CO2. After incubation for 48 h, cultures were observed using an optical microscope. Each concentration was tested in triplicate. Inhibition of tube formation was obtained at 9.3 uM.

For data set [4], the system named is BAE cells. In words: Viability (MTT) under tube formation conditions. It counts as cell-based, Bovine. The following applies: 7 h, at the concentrations used to inhibit differentiation. The method, then:
(§1) Matrigel (50 μL of about 10.5 mg/mL) at 4° C. was used to coat each well of a 96-well plate and allowed to polymerise at 37° C. for a minimum of 30 min. 5×10^4 BAE cells were added with 200 μL DMEM. Finally, different amounts of the Compound AD0157 were added and incubated at 37° C. in a humidified chamber with 5% CO2. After incubation for 7 h, cultures were observed (40× and 100× magnifications) and photographed with a NIKON inverted microscope DIAPHOT-TMD (Nikon, Tokyo, Japan). Each concentration was tested in duplicate, and two different observers evaluated the inhibition of tube formation. To check the viability of endothelial cells after the treatment with the compounds in this assay, BAE cells were incubated in 96-well plate in the same conditions employed for the tube formation assay. After 7 h, cell viability in comparison to control untreated cells was determined by the addition of MTT essentially as described for the cell growth assay.

Data set [5] deals with endothelial and tumor cells. In words: Hoechst staining of nuclear morphology. Particulars: 14 h treatment, endothelial and most types of tumor cells. In kind it is cell-based. The method, then:
For Hoechst staining experiments, cells were seeded on 8-well chamber slides and grown to sub-confluence. After treatments for 14 h with the indicated concentrations of the compound in complete medium, cells were washed (PBS) and fixed (formalin solution, Sigma). Chamber slides were stained with Hoechst, mounted (DAKO Cytomation Fluorescent Mounting Medium, DAKO), and observed under a fluorescence microscope (Leica, TCS-NT).

Data set [6] has as its system zebrafish intersegmental vessels. Briefly: Zebrafish embryo intersegmental vessel assay (TGfli1:EGFPy1). In kind it is in vivo. Particulars: 24 h. The method, then: Zebrafish embryos were generated by natural pairwise mating and maintained in embryo water at 28.5° C. […] Embryos were manually dechorionated with forceps at 24 h post-fertilization (hpf), they were arrayed in 96-well plate, one embryo per well, and incubated with 100 μl of the indicated concentrations of the tested compounds at 28.5° C. for 24 h. DMSO was used as both carrier of drugs and control. After incubation, fish embryos were anesthetized with tricaine (0.02%), placed on slides and examined under an epifluorescence Nikon microscope equipped with DS-L1 Nikon digital camera. Phenotypic changes were evaluated by two different observers.

Data set [7] relates to BAE cells. Briefly: Capillary tube formation on Matrigel. It counts as cell-based, Bovine. The following applies: BAECs, 7 h. The procedure:
as §1

The subject of a further data set is HT1080 MMP-9. Briefly: Gelatin zymography, HT1080 cells, MMP-9. It counts as cell-based, Human. The following applies: 24 h.

Regarding `C/C=C/C(=O)C1(O)CC2CC(C(=O)O)CC(C)C2C1C(=O)C1=C(/C=C/C)C(=O)C2(Cl)C3(CCCCCC)C(=O)NC(=O)C23C1=O` (stereo not shown) [AD0157], the IC50 (as a rule, the concentration needed to halve the response being measured) in the data set on BAE cells [1] stood at 10.9 µM. The % Inhibition (usually the percentage by which the read-out fell short of the control) is reported as 20% in data set [2] (0.1 nmol/CAM); 83% in data set [2] (0.5 nmol/CAM); 100% in data set [2] (1 nmol/CAM); 100% in data set [2] (5 nmol/CAM); 25% in data set [6] (5 μM); 48% in data set [6] (10 μM). Moreover, the “% Inhibition” value in data set [6] (25 μM) is given as 85%. The Positive/total in data set [2] (0.1 nmol/CAM) is 1/5; in data set [2] (0.5 nmol/CAM) it was 5/6; in [2] (1 nmol/CAM), 6/6; in data set [2] (5 nmol/CAM), 6/6; in data set [6] (5 μM) it was 5/20; in data set [6] (10 μM), 12/25. For the same molecule, in data set [6] (25 μM), the Positive/total is 17/20. The “MMP-2 levels in HT1080 conditioned media and cellular extracts” value in the data set with HT1080 MMP-2 is given as “no effect”. In addition, in the data set with BAE cells [3], the “Concentration giving inhibition of tube formation” value came to 9.3 µM. Besides, the “Viability of endothelial cells” value in the data set on BAE cells [4] was “did not affect the viability”. For the same molecule, the “Concentration inducing chromatin condensation” value in data set [5] was “above 5 μM”. For the same molecule, in the data set on BAE cells [7], the “Concentration giving complete inhibition of endothelial morphogenesis on Matrigel” value came out at 5 µM. For the same molecule, the “Concentration giving partial inhibition of endothelial morphogenesis on Matrigel” value in the data set with BAE cells [7] was 1 µM. In the data set with HT1080 MMP-9, the “MMP-9 levels in HT1080 conditioned media and cellular extracts” value is reported as “no effect”.
